Assay [1] concerns LPC-demyelinated mice. The experiment in a line: Lysolecithin (LPC)-induced focal demyelination of the spinal cord in mice. The class given is in vivo, mouse. As to the method: 12-week-old C57BL/6 male mice were anaesthetized using isoflurane and a laminectomy was performed. […] of 1% LPC was infused into the dorsal column between T11 and T12 spinal cord at a rate of 0.25 μl/min. The needle was removed after a delay of 5 min to minimize back flow and the lesion closed. […] The mice were euthanized at day 7, 14 and 21 after the laminectomy separately. Spinal cords were dissected for further western blot, histology and ultrastructural analysis. Control animals received an equivalent injection of saline, and tissues were collected according to the same paradigm. […] Lesion sizes were determined by staining of serial sections with eriochrome cyanine staining.
For spinal cord sections, 20 μm coronal sections were incubated in LFB solution in 56° C. overnight and then rinsed sequentially with 95% alcohol and distilled water. The sections were then in 0.1% lithium carbonate solution and followed dehydration with a series of gradated ethanol, cleared with Histoclear and mounted. A set of serial matched sections were imaged and analyzed. Images (5 to 6 sections/animal) were captured under light microscope. The demyelinated areas (lack of LFB staining) were quantified using ImageJ software. For EAE sections, demyelinated areas were measured and represented as a percentage of total area of spinal cord. For sections of LPC model, lesion volumes were calculated by the lesion area from serial sections throughout the entire lesion based on the equation for volume of cylinder (V=lesion area×length of lesion).
Mice were anesthetized with avertin and perfusion with PBS and 4% paraformaldehyde (PFA). Brain or spinal cord were dissected and post-fixed in 4% PFA overnight at 4° C. and equilibrated in 20% sucrose. 20 μm-thick sections were pretreated with Reveal Decloaker Solution (RV 1000M, Biocare Medical) for antigen retrieval according to the manufacturer's instructions. […] For each staining, at least 3 individual animals/group were examined and images were captured with a Leica DFC500 fluorescence microscope. Staining was quantified using Image J software (US National Instisutes of Health, USA). Fluorescence intensity was calculated as percentages of the mean value of the naïve controls.
For ultrastructural analyses of myelination, anesthetized animals were perfused with 2% glutaraldehyde/4% paraformaldehyde in 0.1 M sodium carcodylate buffer, PH7.4 (Electron Microscopy Sciences). Lesioned areas of the LPC or EAE-induced spinal cords from ISP-treated or control animals were dissected and post-fixed in 1% OsO4 for 2 hrs. Coronal sections ([…]) of spinal cord or brain containing corpus callosum were prepared (Leica, Vibratome), dehydrated, stained with saturated uranyl acetate and embedded in a Poly/Bed812 resin (Polysciences Inc.). The 1 μm-thick sections were cut and stained with toluidine blue, and matched areas were selected for EM analysis. For ultrastructure analysis, ultrathin sections (0.1 μm) were cut and visualized using an electron microscope (JEOL100CX) at 80 kV. G-ratios were calculated from at least 50-100 randomly selected myelinated axons by measuring the myelin thickness of the inner and outer diameter of the myelin sheath.

Assay [2] deals with organotypic cerebellar slice cultures. The experiment in a line: LPC-induced demyelination in mouse cerebellar slice cultures. The class given is cell-based. An excerpt:
We carried out the cerebellar slice culture method as described previously (Zhang, H., et al. Central nervous system remyelination in culture—A tool for multiple sclerosis research. Experimental Neurology 230, 138-148 (2011)). Briefly, 300 μm-thick cerebellar slices were cut from P10-12 mouse cerebellum using a Leica vibrating microtome (Leica, VT1000S) and cultured in medium containing 50% basal medium eagle medium, 25% Heat-inactivated horse serum, 25% Hank's solution, 2.5% glucose, 1% glutamine and penicillin-streptomycin. After 4 days in vitro (DIV), 0.5 mg/ml LPC were added for 17-18h to induce demyelination. Slices were then incubated with 2.5 μM ISP for 8 days. For GM6001 experiments, 25 μM GM6001 (Tocris) and/or 2.5 μM ISP or SISP was incubated for 9 days. Remyelination was examined by semi-quantitative Western blot of MBP and immunofluorescence stain of MBP and NeuF200.
Slices were fixed with 4% PFA, delipidated, and washed three times in PBS, blocked in PBS containing 0.1% Triton X-100 and 5% normal goat serum and incubated with anti-MBP (SMI-99P, Covance, 1:300), and anti-NeuF200 (N4142, Sigma, 1:250) antibodies overnight at 4° C. The slices were then washed in PBS and incubated in Alexa Fluor-conjugated secondary antibodies (1:500, invitrogen) for 2h. Slices were mounted in Vectashield mounting medium with DAPI (Vector Laboratories) and analyzed using Leica DFC500 fluorescence microscope.

For assay [3], the system named is oligodendrocyte progenitor cells (OPCs). The experiment in a line: OPC maturation and process outgrowth on CSPGs (MBP footprint). It counts as cell-based, mouse. As for the experimental part: OPCs were prepared from newborn C57BL/6 mice as described previously (Luo, F., et al. The Activators of Cyclin-Dependent Kinase 5 p35 and p39 Are Essential for Oligodendrocyte Maturation, Process Formation, and Myelination. J. Neurosci. 36, 3024-3037 (2016).). Cell culture plates were pre-coated with IgM (10 jpg/ml, Millipore) in 50 mM Tris-HCl and followed primary mouse antibody A2B5. Dissociated cells were incubated in the pre-coated culture dishes for 30 min at 37° C. and then non-adherent cells were gently removed. A2B5+ OPCs were released by 0.05% trypsin in DMEM at a purify of ˜96%. Purified OPC cells were expanded in DMEM/F12 medium supplemented with N2, 20 ng/ml PDGF, 20 ng/mlFGF, 5 ng/mlNT-3, 10 ng/ml CNTF, Glutamine (200 mM).
For MMP-2/04 staining, OPCs were plated onto 24-well coverslips that were precoated with PLL, 1 μg/mL laminin, and 2 μg/mL aggrecan and incubated with vehicle or 2.5 μM ISP for 2 days at 37° C. Cultured OPC or OL cells were fixed in 4% PFA and followed blocking in PBST solution (10% normal goat serum and 0.2% Triton-X100 in PBS). Diluted primary antibodies were incubated with samples overnight at 4° C. and followed by appropriate secondary antibody goat anti-mouse or anti-rabbit IgM or IgG conjugated with Alexa Fluor 488 or 594 (1:500, Invitrogen). […]

Where [4] appears, read: 14 dpl, given together with ISP, vs LPC+ISP.
Where [5] appears, read: 7 dpl, lesion epicenter, ISP started immediately.

For the compound `CCCCCCCC/C=C\CCCCCCCC(=O)NO` [OA-Hy, reference compound], in assay [1] (setting [4]), the CS56 immunoreactivity entry is given as “concomitant increase in CS56 immunoreactivity” and the “Olig2+ OPCs in the lesion epicenter” value was “decreased accumulation”. In addition, the “lesion volume, eriochrome cyanine myelin staining” value in assay [1] (18 dpl, MMP-2 inhibition without ISP, vs vehicle control) is reported as “increased the lesion volume”. The “effect on ISP-enhanced remyelination (lesion volume)” value in assay [1] (18 dpl, given together with ISP) is given as “attenuated the enhanced remyelinating effects of ISP”. The “colocalization of MBP and neurofilament+ axons” value in assay [2] (25 μM GM6001 or 100 nM OA-Hy in conjunction with 2.5 μM ISP, 9 days) was “decreased”. Besides, in assay [3] (100 nM OA-Hy, OPCs on aggrecan/laminin, vs ISP treatment alone), the MBP footprint result is reported as “decreased MBP footprint significantly”.
Take “GRKKRRQRRRCDMAEHMERLKANDSLKLSQEYESI [ISP]”: in assay [1] (7 dpl vs vehicle), the “Olig2+/Ki67+ cells” value is given as “no differences” and the “percentage of Olig2+ OPCs in lesions” value is recorded as “significantly increased”. Moreover, the “lesion volume (LFB)” value in assay [1] (7 dpl, ISP 20 μg/day subcutaneous from 1 day post LPC, vehicle 1.508±0.069) worked out at 1.535±0.058 mm^3. Moreover, the “CSPG expression (CS56, Cat301)” value in assay [1] (7 dpl, ISP started immediately upon LPC injection, 7 days) is reported as “significantly reduced”. In assay [1] (setting [5]), the “MBP myelin protein expression vs control” value was “no change”, the “activated microglia (Iba1) vs control” value is “no change” and the “reactive astrocytes (GFAP) vs control” value is recorded as “no change”. Moreover, the “MBP expression, western blot” value in assay [1] (14 dpl) is recorded as “increased expression of MBP”. The “CSPGs (CS56 and Cat301) immunostaining” value in assay [1] (14 dpl vs controls) is on record as “quicker reduction of CSPGs”. For the same compound, in assay [1] (14 dpl, vehicle 1.035±0.06), the “lesion volume (LFB)” value stood at 0.613±0.043 mm^3. The “lesion volume (LFB)” value in assay [1] (21 dpl, vehicle 0.738±0.027) was 0.2±0.041 mm^3. Further, the “percentage of CC1+ oligodendrocytes in lesions” value in assay [1] (LPC-injected animals, 14 dpl) was “significantly enhanced”. Further, in assay [1] (spinal cord, vs LPC vehicle), the “MMP-2 expression in the LPC-injected site (immunohistochemistry, western blot)” value is on record as “markedly enhanced”. Also, the MBP-neurofilament colocalization entry in assay [2] (2.5 μM ISP for 9 days after LPC, vs control) is recorded as “significantly increased”. The “remyelination (MBP and NF200 colocalization)” value in assay [2] (2.5 μM ISP, 8 div after LPC, vs vehicle) is reported as “increased remyelination”. Moreover, the “aggrecan (Cat301) expression vs vehicle” value in assay [2] (4 div) is on record as “similar”. Moreover, the “aggrecan (Cat301) presence” value in assay [2] (8 div) is “decrease in aggrecan presence”. The “CSPG expression vs vehicle” value in assay [2] (14 div) is reported as “greater CSPG decrease”. Also, the “remyelination (MBP and NF200 colocalization, western blot)” value in assay [2] (ISP, 14 div after LPC) was “abundant remyelinated axons”. Further, the “process outgrowth and maturation of OPCs grown on CSPGs (MBP+ footprints)” value in assay [3] (ISP vs vehicle on CSPGs) is reported as “largely rescued”.
